Laboratory results from PubChem BioAssay AID2060893 (Molecular Pharmacology Branch, DTP, NCI, 2025).

Test system: K86415-001-R-J1-PDC complex spheroids, viability
Assay: Anticancer human tumor K86415-001-R-J1-PDC patient-derived lung adenocarcinoma cell line growth inhibition [RAS]
Settings: for IC50: curve of first compound; for viability, T/C: stronger effect = lower value
How it was run: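 Tumour cells grown as complex spheroids with HUVEC endothelial cells and mesenchymal stem cells, treated with RAS pathway inhibitor combinations. Each agent spans half-log steps from near clinical Cmax, or 10 microM where Cmax is unknown.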
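Also: spheroids exposed to agents for seven days before readout.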

NC1c2ccccc2OC12CCN(c1cnc3c(N4CCCc5ncccc54)n[nH]c3n1)CC2 (centres undefined) + CCn1c(-c2cccnc2C(C)OC)c2c3cc(ccc31)N1CCOC(CC(NC(=O)C(C(C)C)N(C)C(=O)C3(F)CCN(C(=O)C#CC(C)(C)N(C)C)CC3)C(=O)N3CCCC(N3)C(=O)OCC(C)(C)C2)C1
IC50 (second compound 0.000949 µM): < 31.6 nM
IC50 (second compound 0.003 µM): < 31.6 nM
IC50 (second compound 0.00949 µM): < 31.6 nM
IC50 (second compound 0.03 µM): < 31.6 nM
IC50 (second compound 0.0949 µM): < 31.6 nM
IC50 (second compound 0.3 µM): < 31.6 nM
viability, T/C (second compound 0.000949 µM, first compound 0.0316 µM): 13.4%
viability, T/C (second compound 0.000949 µM, first compound 0.1 µM): 8.22%
viability, T/C (second compound 0.000949 µM, first compound 0.316 µM): 6.07%
viability, T/C (second compound 0.000949 µM, first compound 1 µM): 6.52%
viability, T/C (second compound 0.000949 µM, first compound 3.16 µM): 7.18%
viability, T/C (second compound 0.000949 µM, first compound 10 µM): 5.23%
viability, T/C (second compound 0.003 µM, first compound 0.0316 µM): 5.86%
viability, T/C (second compound 0.003 µM, first compound 0.1 µM): 4.35%
viability, T/C (second compound 0.003 µM, first compound 0.316 µM): 4.13%
viability, T/C (second compound 0.003 µM, first compound 1 µM): 4.19%
viability, T/C (second compound 0.003 µM, first compound 3.16 µM): 4.18%
viability, T/C (second compound 0.003 µM, first compound 10 µM): 3.63%
viability, T/C (second compound 0.00949 µM, first compound 0.0316 µM): 6.83%
viability, T/C (second compound 0.00949 µM, first compound 0.1 µM): 4.56%
viability, T/C (second compound 0.00949 µM, first compound 0.316 µM): 3.88%
viability, T/C (second compound 0.00949 µM, first compound 1 µM): 3.79%
viability, T/C (second compound 0.00949 µM, first compound 3.16 µM): 3.72%
viability, T/C (second compound 0.00949 µM, first compound 10 µM): 4.04%
viability, T/C (second compound 0.03 µM, first compound 0.0316 µM): 5.26%
viability, T/C (second compound 0.03 µM, first compound 0.1 µM): 5.42%
viability, T/C (second compound 0.03 µM, first compound 0.316 µM): 4.52%
viability, T/C (second compound 0.03 µM, first compound 1 µM): 3.97%
viability, T/C (second compound 0.03 µM, first compound 3.16 µM): 2.82%
viability, T/C (second compound 0.03 µM, first compound 10 µM): 3.8%
viability, T/C (second compound 0.0949 µM, first compound 0.0316 µM): 6.89%
viability, T/C (second compound 0.0949 µM, first compound 0.1 µM): 5.55%
viability, T/C (second compound 0.0949 µM, first compound 0.316 µM): 3.94%
viability, T/C (second compound 0.0949 µM, first compound 1 µM): 3.94%
viability, T/C (second compound 0.0949 µM, first compound 3.16 µM): 2.53%
viability, T/C (second compound 0.0949 µM, first compound 10 µM): 3.05%
viability, T/C (second compound 0.3 µM, first compound 0.0316 µM): 5.95%
viability, T/C (second compound 0.3 µM, first compound 0.1 µM): 4.18%
viability, T/C (second compound 0.3 µM, first compound 0.316 µM): 4.35%
viability, T/C (second compound 0.3 µM, first compound 1 µM): 2.49%
viability, T/C (second compound 0.3 µM, first compound 3.16 µM): 2.46%
viability, T/C (second compound 0.3 µM, first compound 10 µM): 2.39%

CC1(C)CCC(Nc2ncc(C(F)(F)F)c(-c3c[nH]c4c(P(C)(C)=O)c(C#N)ccc34)n2)CN1 (centres undefined) + C#Cc1c(F)ccc2cc(O)cc(-c3ncc4c(N5CC6CCC(C5)N6)nc(OCC56CCCN5CC(F)C6)nc4c3F)c12
IC50 (second compound 0.0316 µM): 300 nM
IC50 (second compound 0.1 µM): > 300 nM
IC50 (second compound 0.316 µM): 300 nM
IC50 (second compound 1 µM): > 300 nM
IC50 (second compound 3.16 µM): > 300 nM
IC50 (second compound 10 µM): < 0.949 nM
viability, T/C (second compound 0.0316 µM, first compound 0.000949 µM): 103%
viability, T/C (second compound 0.0316 µM, first compound 0.003 µM): 131%
viability, T/C (second compound 0.0316 µM, first compound 0.00949 µM): 75.3%
viability, T/C (second compound 0.0316 µM, first compound 0.03 µM): 59.8%
viability, T/C (second compound 0.0316 µM, first compound 0.0949 µM): 56.6%
viability, T/C (second compound 0.0316 µM, first compound 0.3 µM): 55.5%
viability, T/C (second compound 0.1 µM, first compound 0.000949 µM): 103%
viability, T/C (second compound 0.1 µM, first compound 0.003 µM): 118%
viability, T/C (second compound 0.1 µM, first compound 0.00949 µM): 77.3%
viability, T/C (second compound 0.1 µM, first compound 0.03 µM): 62%
viability, T/C (second compound 0.1 µM, first compound 0.0949 µM): 57.4%
viability, T/C (second compound 0.1 µM, first compound 0.3 µM): 61%
viability, T/C (second compound 0.316 µM, first compound 0.000949 µM): 101%
viability, T/C (second compound 0.316 µM, first compound 0.003 µM): 119%
viability, T/C (second compound 0.316 µM, first compound 0.00949 µM): 78.3%
viability, T/C (second compound 0.316 µM, first compound 0.03 µM): 60.4%
viability, T/C (second compound 0.316 µM, first compound 0.0949 µM): 62.8%
viability, T/C (second compound 0.316 µM, first compound 0.3 µM): 61.9%
viability, T/C (second compound 1 µM, first compound 0.000949 µM): 78.5%
viability, T/C (second compound 1 µM, first compound 0.003 µM): 103%
viability, T/C (second compound 1 µM, first compound 0.00949 µM): 76.5%
viability, T/C (second compound 1 µM, first compound 0.03 µM): 57.4%
viability, T/C (second compound 1 µM, first compound 0.0949 µM): 60.6%
viability, T/C (second compound 1 µM, first compound 0.3 µM): 65.5%
viability, T/C (second compound 3.16 µM, first compound 0.000949 µM): 39.1%
viability, T/C (second compound 3.16 µM, first compound 0.003 µM): 64.3%
viability, T/C (second compound 3.16 µM, first compound 0.00949 µM): 60.5%
viability, T/C (second compound 3.16 µM, first compound 0.03 µM): 49.5%
viability, T/C (second compound 3.16 µM, first compound 0.0949 µM): 47.9%
viability, T/C (second compound 3.16 µM, first compound 0.3 µM): 55.8%
viability, T/C (second compound 10 µM, first compound 0.000949 µM): 19%
viability, T/C (second compound 10 µM, first compound 0.003 µM): 22%
viability, T/C (second compound 10 µM, first compound 0.00949 µM): 26.7%
viability, T/C (second compound 10 µM, first compound 0.03 µM): 29.1%
viability, T/C (second compound 10 µM, first compound 0.0949 µM): 33.6%
viability, T/C (second compound 10 µM, first compound 0.3 µM): 34.3%
